Source: patent US7960377B2 (priority 2008, dated 2011)

Tests used:
rat CB2 receptor = target: T1, rat CB2 receptor (Rattus norvegicus, UniProt Q9QZN9); assay: cell-based; format: cell-based
T1 sequence (Q9QZN9 1-360): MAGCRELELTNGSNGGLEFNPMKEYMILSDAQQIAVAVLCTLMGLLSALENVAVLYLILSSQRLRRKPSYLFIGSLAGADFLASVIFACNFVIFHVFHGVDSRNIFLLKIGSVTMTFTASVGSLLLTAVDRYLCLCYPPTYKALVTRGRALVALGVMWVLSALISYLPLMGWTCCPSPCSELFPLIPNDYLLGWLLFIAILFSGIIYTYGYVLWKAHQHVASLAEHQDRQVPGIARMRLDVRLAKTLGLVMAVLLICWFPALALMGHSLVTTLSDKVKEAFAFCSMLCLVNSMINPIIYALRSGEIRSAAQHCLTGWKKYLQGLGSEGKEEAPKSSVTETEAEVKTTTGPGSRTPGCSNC

human CB1 receptor = human CB1 receptor (Homo sapiens, UniProt P21554); assay: cell-based
Sequence of human CB1 receptor (P21554 whole entry): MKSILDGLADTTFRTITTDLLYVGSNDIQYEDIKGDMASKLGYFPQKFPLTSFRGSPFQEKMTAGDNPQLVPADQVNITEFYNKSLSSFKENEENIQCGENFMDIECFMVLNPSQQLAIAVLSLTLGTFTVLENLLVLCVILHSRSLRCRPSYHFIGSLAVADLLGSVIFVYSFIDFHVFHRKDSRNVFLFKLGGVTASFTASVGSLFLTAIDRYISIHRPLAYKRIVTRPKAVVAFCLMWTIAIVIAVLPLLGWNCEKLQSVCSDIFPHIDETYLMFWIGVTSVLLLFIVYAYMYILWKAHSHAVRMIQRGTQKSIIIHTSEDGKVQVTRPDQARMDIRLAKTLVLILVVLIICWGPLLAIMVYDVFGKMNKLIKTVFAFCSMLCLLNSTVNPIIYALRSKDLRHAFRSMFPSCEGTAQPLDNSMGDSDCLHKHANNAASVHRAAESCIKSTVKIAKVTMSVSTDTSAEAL

COCCN(C(=O)c1cnc2c(c1)N(S(=O)(=O)c1ccc(C(F)(F)F)cc1)CCO2)C(C)(C)C [Example 43, N-tert-butyl-N-(2-methoxyethyl)-1-(4-(trifluoromethyl)phenylsulf-onyl)-2,3-dihydro-1H-pyrido[2,3-b][1,4]oxazine-7-carboxamide]
EC50 (rat CB2 receptor): ≤ 30 nM
inverse agonist mark, human CB1 receptor (human CB1 receptor; asterisk at the compound number): 11, 24, 25, 42, 43*, 67, 117*, 121, 124, 131, 132, 148, 150, 151,

CC(C)(CN1CCOCC1)NC(=O)c1cnc2c(c1)N(S(=O)(=O)c1ccc(C(F)(F)F)cc1)CCO2 [Example 46, N-(2-methyl-1-morpholinopropan-2-yl)-1-(4-(trifluoromethyl)phenylsulfonyl)-2,3-dihydro-1H-pyrido[2,3-b][1,4]oxazine-7-carboxamide]
EC50 (rat CB2 receptor): ≤ 30 nM
EC50 (human CB1 receptor): > 30000 nM

CC(C)(C)NC(=O)c1cnc2c(c1)N(S(=O)(=O)c1ccc(OC(F)(F)F)cc1)CCO2 [Example 48, N-tert-butyl-1-(4-(trifluoromethoxy)phenyl-sulfonyl)-2,3-dihydro-1H-pyrido[2,3-b][1,4]oxazine-7-carboxamide]
EC50 (rat CB2 receptor): ≤ 30 nM
EC50 (human CB1 receptor): > 30000 nM

Cc1ccc(S(=O)(=O)N2CCOc3ncc(C(=O)NC(C)(C)C)cc32)s1 [Example 59, N-tert-butyl-1-(5-methylthiophen-2-ylsulfonyl)-2,3-dihydro-1H-pyrido[2,3-b][1,4]oxazine-7-carboxamide]
EC50 (rat CB2 receptor): ≤ 30 nM
EC50 (human CB1 receptor): > 30000 nM

CCC(CO)(CO)NC(=O)c1cnc2c(c1)N(S(=O)(=O)c1ccc(C(F)(F)F)cc1)CCO2 [Example 64, N-(1-hydroxy-2-(hydroxymethyl)butan-2-yl)-1-(4-(trifluoromethyl)phenylsulf-onyl)-2,3-dihydro-1H-pyrido[2,3-b][1,4]oxazine-7-carboxamide]
EC50 (rat CB2 receptor): ≤ 30 nM
EC50 (human CB1 receptor): > 30000 nM

CC(C)(C)CC(C)(C)NC(=O)c1cnc2c(c1)N(S(=O)(=O)c1ccc(C(F)(F)F)cc1)CCO2 [Example 65, 1-(4-(trifluoromethyl)-phenylsulfonyl)-N-(2,4,4-trimethylpentan-2-yl)-2,3-dihydro-1H-pyrido[2,3-b][1,4]oxazine-7-carboxamide]
EC50 (rat CB2 receptor): ≤ 30 nM
EC50 (human CB1 receptor): > 30000 nM

COC(=O)[C@@H]1CCCCN1C(=O)c1cnc2c(c1)N(S(=O)(=O)c1ccc(C(F)(F)F)cc1)CCO2 [Example 68, (S)-methyl 1-(1-(4-(trifluoromethyl)phenylsulf-onyl)-2,3-dihydro-1H-pyrido[2,3-b][1,4]oxazine-7-carbonyl)piperidine-2-carboxylate]
EC50 (rat CB2 receptor): ≤ 30 nM
EC50 (human CB1 receptor): > 30000 nM

CCOC(=O)C1(NC(=O)c2cnc3c(c2)N(S(=O)(=O)c2ccc(C(F)(F)F)cc2)CCO3)CC1 [Example 70, ethyl 1-(1-(4-(trifluoromethyl)phenylsulf-onyl)-2,3-dihydro-1H-pyrido[2,3-b][1,4]oxazine-7-carboxamido)-cyclopropanecarboxylate]
EC50 (rat CB2 receptor): ≤ 30 nM
EC50 (human CB1 receptor): > 30000 nM

CCOC(=O)C1(NC(=O)c2cnc3c(c2)N(S(=O)(=O)c2ccc(C(F)(F)F)cc2)CCO3)CCC1 [Example 71, ethyl 1-(1-(4-(trifluoro-methyl)phenylsulfonyl)-2,3-dihydro-1H-pyrido-[2,3-b][1,4]oxazine-7-carboxamido)cyclo-butanecarboxylate]
EC50 (rat CB2 receptor): ≤ 30 nM
EC50 (human CB1 receptor): > 30000 nM

CC(C)(C)NC(=O)c1cnc2c(c1)N(S(=O)(=O)c1cccc(C(F)(F)F)c1)CCO2 [Example 83, N-tert-butyl-1-(3-(trifluoromethyl)phenylsulf-onyl)-2,3-dihydro-1H-pyrido[2,3-b][1,4]oxazine-7-carboxamide]
EC50 (rat CB2 receptor): ≤ 30 nM
EC50 (human CB1 receptor): > 30000 nM

CC(C)(C)NC(=O)c1cnc2c(c1)N(S(=O)(=O)c1cccc(Cl)c1)CCO2 [Example 89, N-tert-butyl-1-(3-chlorophenylsulfonyl)-2,3-dihydro-1H-pyrido[2,3-b][1,4]oxazine-7-carboxamide]
EC50 (rat CB2 receptor): ≤ 30 nM
EC50 (human CB1 receptor): > 30000 nM
